From PMC11173104, “Synthesis and Antioxidant Activity of N-Benzyl-2-[4-(aryl)-1H-1,2,3-triazol-1-yl]ethan-1-imine Oxides” (International Journal of Molecular Sciences, 2024)

Columns and labels:
[1] = Reducing activity (RA): interaction with the stable free radical DPPH; settings: 100 µM
Protocol: DPPH is a stable free radical, advantageous for testing compounds in an ethanolic solution, which in its oxidized form presents a maximum absorbance at about 517 nm. The DPPH method is independent of the molecule’s polarity. […] Nitrones 10b, 10c, and 10d highly interact with DPPH (64.5–81%) after 20 min, whereas 10a presents a lower value. In general, the insertion of a substituent increases the reducing activity (RA). […] It seems that an acceptor, such as a fluorine atom, with small molar refractivity (MR) in the para position offers antioxidant ability. […] RA is not influenced by lipophilicity within this nitrones group. The interaction values are increased for all after 60 min (78–81%), showing time dependency. For the sake of comparison, NDGA was used as a standard reference compound.
To an ethanolic solution of DPPH (0.05 mM) in absolute ethanol, 10 µL from a stock solution (10 mM) in the DMSO of the compounds was added. The mixture was shaken vigorously and allowed to stand for 20 min or 60 min; absorbance at 517 nm was determined spectrophotometrically and the percentage of activity was calculated. All tests were undertaken on three or four replicates and the results were averaged (Table 1). NDGA was used as a reference compound.

[2] = Competition with DMSO for hydroxyl radicals; settings: 100 µM; Fe3+/ascorbic acid, 37 °C, 30 min
Protocol: Hydroxyl (^•OH) free radical is counted as the most toxic. As a result, it reacts with important biological molecules such as DNA, lipids, or carbohydrates. We found it interesting to test the scavenging activity of the compounds in competition with DMSO.
The hydroxyl radicals were produced by the Fe^3+/ascorbic acid system and detected by the determination of the formaldehyde produced from the oxidation of DMSO. EDTA (0.1 mM), Fe^3+ (167 μM), DMSO (33 mM) in phosphate buffer (50 mM, pH 7.4), the tested compounds (100 µM) and ascorbic acid (10 mM) were inserted, mixed, and incubated in test tubes at 37 °C for 30 min. The reaction was stopped by CCl3COOH (17% w/v) and the % scavenging activity of the nitrones for hydroxyl radicals was recorded. Trolox was used as a positive control (Table 1).

[3] = set-up: method as in PMID 36670898; settings: previous work; cited from earlier work
[4] = ABTS•+ decolorization assay in ethanolic solution; settings: 100 µM; 734 nm, 1 min
Protocol: ABTS^•+ was produced according to the described procedure as follows. An ABTS stock solution in water (7 mM) was mixed with potassium persulfate (2.45 mM) and left in a dark at room temperature for 12–16 h before use. A total of 10 µL of the investigated compounds were added to ethanol together with the cationic radical. The results were taken at 734 nm, after 1 min of the mixing procedure. Trolox was used as a positive standard (Table 1).

[5] = Inhibition of AAPH-induced linoleic acid lipid peroxidation (ILP); settings: 100 µM, 37 °C, pH 7.4
From the text: In our studies, the water-soluble azo AAPH was used as a thermal free radical initiator to induce the oxidative changes of linoleic acid to conjugated diene hydroperoxide. All nitrones except for 10c presented inhibition values (75–87%) lower than the common standard Trolox (93%) (Table 1). […] Lipophilicity seems to play a significant role related to a positive result since the inserted methyl group in compound 10b (75%) increases the lipophilicity of compound 10d driving it to higher inhibition (87%).
Ten microliters of the 16 mM linoleic acid sodium salt solution were added to the UV cuvette containing 0.93 mL of the 0.05 M phosphate buffer, pH 7.4 prethermostated at 37 °C. The oxidation reaction was initiated at 37 °C under air by the addition of 50 μL of the 40 mM AAPH solution. Oxidation was carried out in the presence of 10 μL of the compounds’ stock 10 mM solution in DMSO, in the assay. Lipid oxidation was measured in the presence of the same level of DMSO. The rate of oxidation at 37 °C was recorded as the absorption values at 234 nm and compared to Trolox (Table 1).

soybean LOX = target: T1, soybean LOX (Glycine max, UniProt P08170); assay: Soybean LOX inhibition in vitro (UV absorbance-based); format: biochemical; settings: for IC50: Tris pH 9, sodium linoleate
T1 construct: purchased Aldrich Chemical Co., Milwaukee, WI, USA
T1 sequence (P08170 1-839): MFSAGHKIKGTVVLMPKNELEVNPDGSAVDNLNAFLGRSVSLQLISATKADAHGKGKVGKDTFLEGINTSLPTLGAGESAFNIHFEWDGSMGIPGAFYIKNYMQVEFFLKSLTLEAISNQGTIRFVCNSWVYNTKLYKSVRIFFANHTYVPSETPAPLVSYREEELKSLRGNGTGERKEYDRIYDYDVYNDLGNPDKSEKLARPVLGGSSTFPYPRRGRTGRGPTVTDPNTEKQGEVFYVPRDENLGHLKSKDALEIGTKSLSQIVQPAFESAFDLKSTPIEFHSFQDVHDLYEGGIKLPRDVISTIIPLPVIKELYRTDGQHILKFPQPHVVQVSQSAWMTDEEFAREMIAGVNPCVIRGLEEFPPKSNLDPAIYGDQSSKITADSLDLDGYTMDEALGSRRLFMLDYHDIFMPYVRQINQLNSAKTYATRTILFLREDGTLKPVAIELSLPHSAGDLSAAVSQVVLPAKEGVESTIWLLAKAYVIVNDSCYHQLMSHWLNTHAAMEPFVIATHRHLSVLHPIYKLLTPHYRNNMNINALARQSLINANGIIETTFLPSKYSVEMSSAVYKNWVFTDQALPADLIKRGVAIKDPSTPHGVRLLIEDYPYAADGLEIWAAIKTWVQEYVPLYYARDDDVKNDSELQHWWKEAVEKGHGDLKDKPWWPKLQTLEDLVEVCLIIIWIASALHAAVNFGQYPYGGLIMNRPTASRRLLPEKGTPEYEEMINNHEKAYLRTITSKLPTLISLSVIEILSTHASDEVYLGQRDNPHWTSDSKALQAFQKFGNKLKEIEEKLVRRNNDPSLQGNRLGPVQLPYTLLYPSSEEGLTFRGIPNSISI
From the text: The appropriate stimulation of neutrophils cleaves arachidonic acid (AA) from membrane phospholipids, producing leukotrienes through lipoxygenase. Leukotriene B4 (LTB4) is a potent mediator of inflammation, considered to be important in the pathogenesis of neutrophil-mediated inflammatory diseases with a marked relation to the severity of cardiovascular diseases, stroke, and cancer. The enzyme lipoxygenase catalyzes the first two steps in the metabolism of AA, which is cleaved from membrane phospholipids to leukotrienes (LTB4). LTB4 generation is important in the pathogenesis of neutrophil-mediated inflammatory diseases.
The tested compounds dissolved in DMSO were incubated at rt with sodium linoleate (0.1 mL) and 0.2 mL of the enzyme solution (1/9 × 10^−4 w/v in saline) in buffer Tris pH 9.

Row | Structure (SMILES) | RA (%) 20 min [1] | RA (%) 60 min [1] | Scavenging Activity for HO• (%) [2] | hydroxyl radical scavenging (%) [3] [%] | ABTS•+ (%) [4] [%] | ILP (%) [5] [%] | IC50 (soybean LOX) [µM] | melting point [°C] | inhibition at 100 µM (soybean LOX; at 100 µM) [%]
1 | CC(Cc1ccc(O)c(O)c1)C(C)Cc1ccc(O)c(O)c1 (stereo not drawn) [NDGA, nordihydroguaiaretic acid, reference compound] | 88% | 96% |  |  |  |  |  |  | 
2 | Cc1c(C)c2c(c(C)c1O)CCC(C)(C(=O)O)O2 (stereo not drawn) [Trolox, reference compound] |  |  | 73% | 88 | 91 | 93 |  |  | 
3 | [O-][N+](=CCn1cc(-c2ccccc2)nn1)Cc1ccccc1 [Nitrone 10a, N-Benzyl-2-(4-phenyl-1H-1,2,3-triazol-1-yl)ethan-1-imine Oxide] | 57% | 78% | no |  | 8 | 81 | 85 | 134 to 136 | 
4 | Cc1cc(-c2cn(CC=[N+]([O-])Cc3ccccc3)nn2)ccc1F [Nitrone 10d, N-Benzyl-2-[4-(4-fluoro-3-methylphenyl)-1H-1,2,3-triazol-1-yl]ethan-1-imine Oxide] | 64.4% | 79.5% | no |  | 23 | 87 |  | 131 to 133 | 45
5 | [O-][N+](=CCn1cc(-c2ccc(F)cc2)nn1)Cc1ccccc1 [Nitrone 10b, N-Benzyl-2-[4-(4-fluorophenyl)-1H-1,2,3-triazol-1-yl]ethan-1-imine Oxide] | 81/81% | 81/81% | no |  | 46 | 75 | 62.5 | 129 to 131 | 
6 | [O-][N+](=CCn1cc(-c2ccc(F)cc2F)nn1)Cc1ccccc1 [Nitrone 10c, N-Benzyl-2-[4-(2,4-difluorophenyl)-1H-1,2,3-triazol-1-yl]ethan-1-imine Oxide] | 79/79% | 79/79% | no |  | 23 |  | 10 | 112 to 113 | 
